From patent US7390910B2, “Compounds for treating tumors” (priority 2003, dated 2008) come the findings set out here.

Marks after values point to notes of the source that are not given here. *1 amine or outer side, *2 acyl side, *3 side chain or, on linkers, in order; H or OH if unused. Where a SMILES comes first, the peptide text is derived from it. [ ]: non-standard residue; d: D form. The star is where a group is joined. NMePhe(3-Me,β,β-Me2) = CN[C@H](C(=O)O)C(C)(C)c1cccc(C)c1; X1 = C/C(=C\[C@H](C(C)C)N(C)[*:1])C(=O)[*:2]; Tle = CC(C)(C)[C@H](N)C(=O)O; NHBn = c1ccc(CN*)cc1

One experiment concerns KB cells. The experiment is described as follows: cells. The format is cell-based. The note with it: for IC50: 3 days, SRB. The method, then: (§1) Cell Survival Assay: Standard Pharmacological Test Procedure. […] Compounds are incubated with cells for 3 days.
In another experiment the test system is KBV1. The experiment is described as follows: cells. To be noted: for inhibition at 3 µM: KB-V1, 3000 nM; for IC50: 3 days, SRB. It counts as cell-based. The method, then:
as §1

The next experiment concerns KB85. The experiment is described as follows: cells. To be noted: for IC50: 3 days, SRB. The format is cell-based. The method, then: as §1
Experiment [1] has as its system bovine microtubule-associated protein (MAP)-rich tubulin. It counts as biochemical. The method, then: Tubulin Polymerization Assays. For in vitro tubulin polymerization assays, bovine microtubule-associated protein (MAP)-rich tubulin, PEM buffer [80 mM Na-PIPES (pH 6.9), 1 mM MgCl2, and 1 mM EGTA], and GTP are purchased from Cytoskeleton (Denver, Colo.). MAP-rich tubulin (final concentration 1.5 mg/ml) is dissolved in cold PEM buffer containing 1 mM GTP (GPEM) and centrifuged at 12,000×g for 10 min at 4° C. The tubulin solution (100 μl/well) is added rapidly to wells of a low-volume, 96-well plate already containing duplicate aliquots (10 μl) of test compounds in GPEM. […] Control wells contained the same final concentration of DMSO (0.3%). After initiation of the reaction, absorbance at 340 nm is measured every minute for 60 min at 24° C. using a SpectraMax Plus plate reader (Molecular Devices, Sunnyvale, Calif.).

By IC50 is commonly meant the concentration that gives 50% inhibition. What is called inhibition is the relative decrease from the control value, in per cent. Take `CN[C@H](C(=O)N[C@H](C(=O)N(C)[C@H](/C=C(\C)C(=O)N1CCN(C)CC1)C(C)C)C(C)(C)C)C(C)(C)c1cccc(C)c1.O=C(O)C(F)(F)F` [Example 6, N,β,β,3-Tetramethyl-L-phenylalanyl-N^1-[(1S,2E)-1-isopropyl-3-methyl-4-(4-methylpiperazin-1-yl)-4-oxobut-2-enyl]-N^1,3-dimethyl-L-valinamide trifluoroacetic acid salt]: the IC50 was found to be 64 nM with KB cells (Homo sapiens, KB, 72 h) and 123 nM with KB85 (72 h). In the experiment with KBV1 (Homo sapiens), testing at 3 µM gave an inhibition of 33%. Also, in experiment [1], the “Tubulin Polym. % inhibition at 0.3 uM” value stood at 64%.
`CN[C@H](C(=O)N[C@H](C(=O)N(C)[C@H](/C=C(\C)C(=O)N1CCC[C@H]1C(=O)OC)C(C)C)C(C)(C)C)C(C)(C)C1CCCCC1` [Example 45, 3-cyclohexyl-N-methyl-L-valyl-N^1-{(1S,2E)-4-[(2S)-2-(methoxycarbonyl)pyrrolidin-1-yl]-1-isopropyl-3-methyl-4-oxobut-2-enyl}-N^1,3-dimethyl-L-valinamide]: the IC50 in the experiment on KB cells (Homo sapiens, KB, 72 h) came out at 3.7 nM; with KBV1 (Homo sapiens, KB-V1, 72 h), 493 nM; in the experiment with KB85 (72 h), 16 nM. The “Tubulin Polym. % inhibition at 0.3 uM” value in experiment [1] is recorded as 62(2) %.
With `CN[C@H](C(=O)N[C@H](C(=O)N(C)[C@H](/C=C(\C)C(=O)NCc1ccc(-c2ccccc2)cc1)C(C)C)C(C)(C)C)C(C)(C)c1ccccc1` [Example 53, N,β,β-trimethyl-L-phenylalanyl-N-1-{(1S,2E)-4-[(1,1′-biphenyl-4-ylmethyl)amino]-1-isopropyl-3-methyl-4-oxobut-2-enyl}-N^1,3-dimethyl-L-valinamide], the IC50 with KB cells came out at 667 nM; in the experiment on KB85, 1680 nM. In the experiment with KBV1, the “KBV1 % inhibition @ 3000 nM” value amounted to 29%. In experiment [1], the “Tubulin Polym. % inhibition at 0.3 uM” value is recorded as 11%.
As to `CN[C@H](C(=O)N[C@H](C(=O)N(C)[C@H](/C=C(\C)C(=O)N1CCC[C@H]1[C@H](OC)[C@@H](C)C(=O)N[C@@H](Cc1ccccc1)c1nccs1)C(C)C)C(C)(C)C)C(C)(C)C1CCCCC1` [Example 44, 3-cyclohexyl-N-methyl-L-valyl-N^1-{(1S,2E)-1-isopropyl-4-[(2S)-2-((1R,2R)-1methoxy-2-methyl-3-oxo-3-{[(1S)-2-phenyl-1-(1,3-thiazol-2-yl)ethyl]amino}propyl)pyrrolidin-1-yl]-3-methyl-4-oxobut-2-enyl}-N^1,3-dimethyl-L-valinamide], the concentration for half-maximal inhibition (IC50) in the experiment with KB cells (Homo sapiens, KB, 72 h) came to 1.5 nM; with KBV1 (Homo sapiens, KB-V1, 72 h), 475 nM; in the experiment on KB85 (72 h) it was 6.2 nM. The “Tubulin Polym. % inhibition at 0.3 uM” value in experiment [1] is on record as 83%.
With `CNC(C(=O)NC(C(=O)N(C)C(C=C(C)C(=O)CO)C(C)C)C(C)(C)C)C(C)(C)c1ccccc1` (centres unmarked) [Example 90, N-{1-[(5-Hydroxy-1-isopropyl-3-methyl-4-oxo-pent-2-enyl)-methyl-carbamoyl]-2,2-dimethyl-propyl}-3-methyl-2-methylamino-3-phenyl-butyramide], the IC50 with KB cells (Homo sapiens, KB, 72 h) amounted to 43 nM; in the experiment with KBV1 (Homo sapiens, KB-V1, 72 h) it was 1130 nM; with KB85 (72 h) it was 68 nM. In experiment [1] (0.5 uM), the “Tubulin Polym. % inhibition at 0.5 uM” value was 76*** %.
As to `CCOS(=O)(=O)/C(C)=C/[C@H](C(C)C)N(C)C(=O)[C@@H](NC(=O)[C@@H](NC)C(C)(C)c1ccccc1)C(C)(C)C` [Example 65, N,β,β-trimethyl-L-phenylalanyl-N^1-[(1S,2E)-3-(ethoxysulfonyl)-1-isopropylbut-2-enyl]-N^1,3-dimethyl-L-valinamide], the inhibition at 3 µM stood at 11% in the experiment with KB cells (Homo sapiens, 72 h, 3000 nM); 0% in the experiment with KBV1 (Homo sapiens); 1% in the experiment with KB85 (3000 nM). For the same compound, the “Tubulin Polym. % inhibition at 0.3 uM” value in experiment [1] is reported as 44%.
For `CN[C@H](C(=O)N[C@H](C(=O)N(C)[C@H](/C=C(\C)C(=O)N1CCC[C@H]1C(=O)OC)C(C)C)C(C)(C)C)C(C)(C)c1cc(C)cc(C)c1` [Example 19, N,β,β,3,5-Pentamethyl-L-phenylalanyl-N^1-{(1S,2E)-4-[(2S)-2-(methoxycarbonyl)pyrrolidin-1-yl]-1-isopropyl-3-methyl-4-oxobut-2-enyl}-N^1,3-dimethyl-L-valinamide], the IC50 with KB cells (Homo sapiens, KB, 72 h) was determined as 5.9 nM; in the experiment with KBV1 (Homo sapiens, KB-V1, 72 h), 1550 nM; in the experiment with KB85 (72 h) it was 50 nM. The “Tubulin Polym. % inhibition at 0.3 uM” value in experiment [1] is 66%.
Taken in the same sequence, the figures for `CN[C@H](C(=O)N[C@H](C(=O)N(C)[C@H](/C=C(\C)C(=O)N1CCOCC1)C(C)C)C(C)(C)C)C(C)(C)c1cccc(C)c1` [Example 1, N,β,β,3-Tetramethyl-L-phenylalanyl-N^1-[(1S,2E)-1-isopropyl-3-methyl-4-morpholin-4-yl-4-oxobut-2-enyl]-N^1,3-dimethyl-L-valinamide] were 19.5 nM, 1510 nM, 56 nM and 79%.
Turning to `CN[C@H](C(=O)N[C@H](C(=O)N(C)[C@H](/C=C(\C)C(=O)N1CCN(Cc2ccccc2)CC1)C(C)C)C(C)(C)C)C(C)(C)c1ccccc1` [Example 39, N,β,β-trimethyl-L-phenylalanyl-N^1-[(1S,2E)-4-(4-benzylpiperazin-1-yl)-1-isopropyl-3-methyl-4-oxobut-2-enyl]-N^1,3-dimethyl-L-valinamide], the IC50 in the experiment on KB cells (Homo sapiens, KB, 72 h) was found to be 15 nM; with KBV1 (Homo sapiens, KB-V1, 72 h), 366 nM; in the experiment on KB85 (72 h) it was 22 nM. Moreover, in experiment [1], the “Tubulin Polym. % inhibition at 0.3 uM” value is given as 29%.
For `CN[C@H](C(=O)N[C@H](C(=O)N(C)[C@H](/C=C(\C)C(=O)N1CCC[C@@H]1C(=O)N1CCC[C@@H]1C(=O)NCc1ccccc1)C(C)C)C(C)(C)C)C(C)(C)c1cccc(C)c1.O=C(O)C(F)(F)F` [Example 9, 1-{(2E,4S)-2,5-Dimethyl-4-[methyl(N,β,β,3-tetramethyl-L-phenylalanyl-3-methyl-L-valyl)amino]hex-2-enoyl}-D-prolyl-N-benzyl-D-prolinamide trifluoroacetic acid salt] (H-[NMePhe(3-Me,β,β-Me2)][Tle][X1][dP][dP]-NHBn), the IC50 was determined as 1.4 nM in the experiment with KB cells (Homo sapiens, KB, 72 h) and 23 nM with KB85 (72 h). In addition, at 3 µM the inhibition in the experiment on KBV1 (Homo sapiens) was 21%. Further, in experiment [1], the “Tubulin Polym. % inhibition at 0.3 uM” value is listed as 56%.
Taken in the same sequence, the figures for `CCOP(=O)(OCC)/C(C)=C/[C@H](C(C)C)N(C)C(=O)[C@@H](NC(=O)[C@@H](NC)C(C)(C)c1ccccc1)C(C)(C)C` [Example 71, N,β,β-trimethyl-L-phenylalanyl-N^1-[(1S,2E)-3-(diethoxyphosphoryl)-1-isopropyl-but-2-enyl]-N^1,3-dimethyl-L-valinamide] were 1300 nM, 1750 nM, 0% and 64%.
Take `CN[C@H](C(=O)N[C@H](C(=O)N(C)[C@H](/C=C(\C)C(O)c1ccccc1)C(C)C)C(C)(C)C)C(C)(C)c1ccccc1` (stereo partly drawn) [Example 74, N,β,β-trimethyl-L-phenylalanyl-N-1-[(1S,2E)-4-hydroxy-1-isopropyl-3-methyl-4-phenylbut-2-enyl}-N-1,3-dimethyl-L-valinamide]: the figures for the IC50 with KB cells, with KBV1 and with KB85 were 19 nM, 466 nM and 54 nM, respectively. The “Tubulin Polym. % inhibition at 0.3 uM” value in experiment [1] is 73%.
Regarding `CN[C@H](C(=O)N[C@H](C(=O)N(C)[C@H](/C=C(\C)C(=O)c1nccs1)C(C)C)C(C)(C)C)C(C)(C)c1ccccc1` [Example 73, N,β,β-trimethyl-L-phenylalanyl-N^1-[(1S,2E)-1-isopropyl-3-methyl-4-oxo-4-(1,3-thiazol-2-yl)but-2-enyl]-N^1,3-dimethyl-L-valinamide], the IC50 with KB cells (Homo sapiens, KB, 72 h) came out at 582 nM; with KBV1 (Homo sapiens, KB-V1, 72 h), 1790 nM; in the experiment on KB85 (72 h), 565 nM. In addition, the “Tubulin Polym. % inhibition at 0.3 uM” value in experiment [1] was determined as 33%.
Consider `CN[C@H](C(=O)N[C@H](C(=O)N(C)[C@H](/C=C(\C)C(=O)O)C(C)C)C(C)(C)C)C12CC3CC(CC(C3)C1)C2` [Example 55, (2E,4S)-4-[{N-[(2S)-2-(1-adamantyl)-2-(methylamino)ethanoyl]-3-methyl-L-valyl}(methyl)amino]-2,5-dimethyl-2-hexenoic acid], for which the IC50 in the experiment with KB cells (Homo sapiens, KB, 72 h) was found to be 603 nM; in the experiment with KB85 (72 h), 646 nM. Moreover, the inhibition at 3 µM in the experiment with KBV1 (Homo sapiens) is 13%. In addition, in experiment [1], the “Tubulin Polym. % inhibition at 0.3 uM” value turned out to be 66%.
`CN[C@@H](C(=O)N[C@H](C(=O)N(C)[C@H](/C=C(\C)C(=O)O)C(C)C)C(C)(C)C)C12CC3CC(CC(C3)C1)C2` [Example 56, (2E,4S)-4-[{N-[(2R)-2-(1-adamantyl)-2-(methylamino)ethanoyl]-3-methyl-L-valyl}(methyl)amino]-2,5-dimethyl-2-hexenoic acid]: the concentration for half-maximal inhibition (IC50) in the experiment with KB cells (Homo sapiens, KB, 72 h) turned out to be 468 nM; in the experiment on KB85 (72 h) it was 575 nM. Moreover, in the experiment on KBV1 (Homo sapiens), at 3 µM the inhibition was 11%.
In the experiment with KB cells, “Ethyl (E,4S)-4-[((2S)-2-{[(2S)-2-azido-3-methyl-3-phenylbutanoyl]amino}-3,3 -dimethylbutanoyl)(methyl)amino]-2,5-dimethyl-2-hexenoate and ethyl (E,4S)-4-[((2S)-2-{[(2R)-2-azido-3-methyl-3-phenylbutanoyl]amino}-3,3-dimethylbutanoyl)(methyl)amino]-2,5-dimethyl-2-hexenoate [Example 93]” displayed an IC50 of 2510 nM. Further, the “KBV1 % inhibition @ 3000 nM” value with KBV1 was determined as 30%. Further, the “KB85 % inhibition @ 3000 nM” value in the experiment with KB85 (3000 nM) stood at 30%.
